Molecules are shown by their SMILES.

One may read the half-life as how long it takes for the measured level to halve.

Data set [1] deals with monoclonal antibody from hybridoma cell line NM4.3F5.C10.B7.B2.B2.C4. It counts as binding, sheep.
For data set [2] the following is noted: cited from earlier work; for plasma elimination half-life: Demerol Prescribing Information datasheet; for half-life: Latta et al., 2002.
For data set [3] the following is noted: cited from earlier work.
For data set [4] the following is noted: cited from earlier work. The source holds these as a separate data set.

With `O=C(O)C(O)C(O)C(=O)O.Oc1ccc2c(c1)[C@@]13CCCC[C@@]1(O)[C@@H](C2)N(CC1CCC1)CC3` [Butorphanol Tartrate], the “% Cross Reactivity” value in data set [1] is less than 1%.
Same read-out and setting: with `COc1ccc2c3c1O[C@H]1[C@@H](O)C=C[C@H]4[C@@H](C2)N(C)CC[C@@]341` [Codeine] the figure was less than 1%; with `CCO[C@@H]1O[C@H](C(=O)O)[C@@H](O)[C@H](O)[C@H]1O` [Ethyl-Glucuronide], less than 1%.
Still for that read-out and setting: with `COc1ccc2c3c1O[C@H]1C(=O)CC[C@H]4[C@@H](C2)N(C)CC[C@]314` [Hydrocodone] the figure was less than 1%; with `CN1CC[C@]23CCCC[C@H]2[C@H]1Cc1ccc(O)cc13` [Levorphanol], less than 1%.
As for `CCOC(=O)C1(c2ccccc2)CCN(C)CC1` [Meperidine], the “% Cross Reactivity” value in data set [1] is given as 102.5%. For the same molecule, in data set [2] (Baselt, 2008), the “eliminated in the form of normeperidine” value is reported as “around 17%” and the “excreted unchanged in urine” value is given as “About 7%”. In addition, in data set [2], the plasma elimination half-life is 3 to 4 h and the half-life was 3 to 6 h. Besides, in data set [2] (in vivo), the “fraction reaching systematic circulation (first-pass metabolism)” value is “around 50%”. Besides, the “time of peak plasma concentrations after administration” value in data set [2] (intramuscular injection) was 1 to 2 h. Also, the “administered dose excreted in urine” value in data set [2] (within 24 hours, Moffat et al., 2003) is listed as “Approximately 70%”. In data set [3] (Latta et al., 2002), the “potency compared to morphine (times less potent)” value is given as 7-10 times. In data set [4] (as low as, Latta et al., 2002), the “daily dose reported to cause grand mal seizures” value is given as no less than 260 mg and the “dose reported as causing muscle twitches or tremors” value is no less than 46 mg per day.
Regarding `CCCC(C)(COC(N)=O)COC(N)=O` [Meprobamate], in data set [1], the “% Cross Reactivity” value is listed as less than 1%.
For the molecule `CCC(=O)C(CC(C)N(C)C)(c1ccccc1)c1ccccc1` (stereo not shown) [Methadone], the “% Cross Reactivity” value in data set [1] is less than 1%.
On to `Oc1ccc2c3c1O[C@H]1[C@@H](O)CC[C@@]4(O)[C@@H](C2)N(CC2CCC2)CC[C@]314` [Nalbuphine], for which, in data set [1], the “% Cross Reactivity” value was less than 1%.
With `NC1(c2ccccc2Cl)CCCCC1=O` (stereo not shown) [Norketamine], in data set [1], the “% Cross Reactivity” value is recorded as less than 1%.
`CCOC(=O)C1(c2ccccc2)CCNCC1` [Normeperidine]: in data set [1], the “% Cross Reactivity” value is 100% and the “IC50 (antibody sensitivity)” value is reported as “about 0.5 ng/ml”. For the same molecule, in data set [2], the plasma elimination half-life was 15 to 20 h and the half-life was 14 to 48 h. Further, in data set [3] (relative to meperidine), the “analgesic effectiveness relative to parent compound” value is “half as effective”. In data set [4] (relative to meperidine), the “convulsant activity relative to parent compound” value was “more active as a convulsant” and the “neurotoxic potential relative to parent compound” value was “up to 3 times”.
In the case of `COc1ccc2c3c1O[C@H]1C(=O)CC[C@@]4(O)[C@@H](C2)N(C)CC[C@]314` [Oxycodone], the “% Cross Reactivity” value in data set [1] is less than 1%.
With `CN1CC[C@]23c4c5ccc(O)c4O[C@H]2C(=O)CC[C@@]3(O)[C@H]1C5` [Oxymorphone], the “% Cross Reactivity” value in data set [1] was less than 1%.
Same read-out and setting: for `CC(C)=CCN1CCC2(C)c3cc(O)ccc3CC1C2C` (stereo not shown) [Pentazocine] the value was less than 1%; for `O=C(O)[C@H]1O[C@@H](OCC(Cl)(Cl)Cl)[C@H](O)[C@@H](O)[C@@H]1O` [Urochloralic Acid], less than 1%; for `CCN(C(C)=O)c1cccc(-c2ccnc3c(C#N)cnn23)c1` [Zaleplon], less than 1%.
For the molecule `Cc1ccc(-c2nc3ccc(C)cn3c2CC(=O)N(C)C)cc1` [Zolpidem], the “% Cross Reactivity” value in data set [1] is reported as less than 1%.
`CN1CCN(C(=O)OC2c3nccnc3C(=O)N2c2ccc(Cl)cn2)CC1` (stereo not shown) [Zopiclone]: the “% Cross Reactivity” value in data set [1] is given as less than 1%.
